The record followed here is a melting point compilation (Tetko et al.; mined from patent text by program, amines drawn as free bases though some values may be those of a salt).

`Cc1nc[nH]c1CSCCNC(=N)NCCSCc1nccs1` yielded a melting point of 149 to 151 °C. The result for `COC(=O)c1ccc(Cc2cn(C)c3ccc(C(=O)O)cc23)c(OC)c1` reads 249 to 251 °C. The result for `Cc1ccccc1C(=O)Nc1ccc(C(=O)N2CCCC(N(C)CC#N)c3ccccc32)cc1` (stereo unspecified) reads 227 to 228 °C; that for `COc1ccccc1N1CCN(CC(O)COc2ccccc2-c2ccnc(N)n2)CC1` (stereo unspecified), 147 to 149 °C; that for `CCC(=NNc1ccc(C2=NNC(=O)CC2)cc1)c1ccncc1`, 235 to 237 °C. The result for `CCCCCCCCOc1ccc(C(C)(C)CC(C)(C)C)cc1S(=O)(=O)NCC(C)c1nn2nc(C)c(Cl)c2[nH]1` (stereo unspecified) reads 135 to 137 °C; that for `CC(=O)OCC1OC(n2cc(C)c(=O)[nH]c2=O)CC1F` (stereo unspecified), 97 to 98 °C. As to `O=C(O)C1Cc2ccccc2N1S(=O)(=O)c1ccc(-c2cccc(Cl)c2)cc1` (stereo unspecified), the melting point turned out to be 78 °C.

As for `CN(C)CCOc1ccc2ccc(NC(=O)c3ccccc3)nc2n1`, the melting point came to 109 °C. The result for `CC(C)(C)CN1C(=O)[C@H](CC(=O)O)O[C@@H](c2ccccc2Cl)c2cc(Cl)ccc21` reads 241 to 245 °C. The result for `COC(=O)/C(=C/C1CCCCCC1)c1ccc(S(C)(=O)=O)c(C(F)(F)F)c1` reads 151 to 156 °C; that for `COc1cc(OC(=O)c2ccc(OC)c(C34CC5CC(CC(C5)C3)C4)c2)ccc1C(=O)O`, 199 to 200 °C; that for `Cc1c(CC(=O)OC(OC(=O)Cc2cc(C(C)(C)C)c(O)c(C)c2C)(OC(=O)Cc2cc(C(C)(C)C)c(O)c(C)c2C)C(C)(C)C)cc(C(C)(C)C)c(O)c1C`, 159 °C. The same measure for `CCOC(=O)C1(C(=O)OCC)CCNC(=O)C1CCO` (stereo unspecified): 120 to 121 °C; for `c1cc2c(cc1OCC1CCCCC1)CCCCC2`: 62 to 63 °C. With `N#Cc1nn(-c2c(Cl)cc(C(F)(F)F)cc2Cl)c(N)c1-c1ccsc1`, the melting point lay in the range of 210 to 212 °C.

For the molecule `O=C(c1ccccc1)c1ccc2nc(-c3ccc[nH]3)[nH]c2c1`, the melting point lay within 128 to 133 °C.

For the molecule `COc1cc(C=O)c(OC)cc1Cl`, the melting point stood at 109 °C. The same measure for `CC(=O)Nc1cc(Cn2c(C(=O)c3cc(C)cc(C)c3)c(C(C)C)c(=O)[nH]c2=O)ccn1`: 244 to 245 °C.

In turn, `N#Cc1ccc(N2C(=O)N(CCCO)C3(CCOCC3)C2=O)cc1C(F)(F)F` showed a melting point of 155 to 156 °C. The same measure for `CCCCCCc1ccc(-c2c(C#N)nn(C(C)(C)Cc3ccc(C)cc3)c2O)cc1`: 140 to 142 °C; for `Cc1oc(-c2ccccc2)nc1COc1ccc(COc2cncc(CC(=O)O)c2)cc1`: 139 to 140 °C. The result for `COc1cc(OC)c2c(C)c(CCN3CCN(c4cccc(C(F)(F)F)c4)CC3)c(=O)oc2c1` reads 138 to 139 °C; that for `CC(C)(C)SC(=S)c1cc(C(C)(C)C)c(O)c(C(C)(C)C)c1`, 128 to 130 °C.

The molecule `CCOC(=O)C1CCn2c1cc(C)c2C(=O)c1ccc(SC)n1C` (stereo unspecified) yielded a melting point of 101 to 102 °C. Take `Nc1nc(N)c2ncn(COCCOC(=O)c3ccccc3)c2n1`: the melting point amounted to 205 °C. The result for `CC(C)CC(=O)Nc1cncc(-c2ccnc3c(C(=O)c4cccs4)cnn23)c1` reads 217 to 219 °C; that for `CCc1nc2c(cnn2CC)c(NC2CCOCC2)c1CNC(=O)c1cc(C)cc(C(=O)NCc2cccc(-c3cccc(C=O)c3)c2)c1`, 109 to 112 °C. The result for `CC(=O)c1ccc(S(=O)(=O)NCCN(C)C)cc1` reads 87 to 89 °C. The same measure for `Cc1ccn(-c2ccc(Oc3ccc(F)cc3)cc2)n1`: 80 to 81 °C; for `CC(=O)OCC(=O)NCc1cccc(-c2csc(N=C(N)NC(=O)COC(C)=O)n2)n1`: 148 to 151 °C. `O=C(CCl)Nc1ccc2c(c1NC(=O)c1ccccc1Cl)C(=O)c1ccccc1C2=O` registered a melting point of 193 to 194 °C.

`Cc1cc(C#N)ccc1-c1ccc(O)cc1`: the melting point is 136 to 138 °C. The same measure for `COC(=O)CC(=O)C=Cc1cc2ccccc2s1`: 105 to 107 °C. The result for `Cc1ccc(NC(=O)c2ccc(C(=O)Nc3ccccc3N)cc2)cc1Nc1nc(-c2cccnc2)cs1` reads 147 °C; that for `Cc1cnc(N2C(=O)C(O)=C(C(=O)c3ccc(C(C)C)cc3)C2c2ccc(OC(F)(F)F)cc2)cn1` (stereo unspecified), 266 to 268 °C; that for `COc1ccc(C(O)(c2ccccc2)c2ccc(OC)cc2)cc1`, 122 to 124 °C.

`O=C1NCCCC12c1ccccc1-c1ccccc12` showed a melting point of over 250 °C. Molecule `N#C[C@@H]1CCC[C@H]2OC[C@@H](c3ccccc3)N12` registered a melting point of 81 °C. The same measure for `CCN(C/C=C/C#CC(C)(C)C)Cc1cccc(N(C)Cc2cccc(-c3ccsc3)c2)c1`: 51 to 52 °C; for `Cc1c2c(c(Cc3ccc(C(C)C)cc3)c(C)c1NC(=O)NC(C)(C)C)OCC2`: 197 to 198 °C. The result for `N#Cc1c(Cl)ccc(C(=O)O)c1Cl` reads 230 to 232 °C; that for `CCC(Cc1cccc(NC(C)=O)c1)C(=O)O` (stereo unspecified), 131 to 132 °C. The result for `CCOC(=O)c1cccn1Cc1ccc(Cl)cc1N` reads 104 to 107 °C. `CCONC(CC)=C1C(=O)CC(C(C)(C)Sc2ccc(C)cc2)CC1=O` (stereo unspecified) displayed a melting point of 77.5 to 79 °C.

The molecule `O=C(CNc1c(C(=O)O)[nH]c2cc(Cl)ccc12)c1ccccc1O` showed a melting point of 198 to 200 °C. The same measure for `Nc1ccc(-n2nnn(CCCC3CCCCC3)c2=O)cc1`: 64 to 69 °C. Molecule `COc1ccc(S(=O)(=O)CCNC(=O)N2CCCC2=O)cc1` gave a melting point of 124 to 125 °C. `c1cnc2c(c1)N(c1ccc3[nH]cc(C4CCNCC4)c3c1)CN2` returned a melting point of 260 to 268 °C. The same measure for `COc1cc(NCCCCCCCl)c2nccc(C)c2c1`: 66 °C; for `COc1ccc(C=C2NC(=O)N(C)C2=O)cc1`: 221 to 222 °C; for `Cc1ccc(N2C(=O)C(O)=C(C(=O)c3ccc(C(C)C)cc3)C2c2ccc(C(F)(F)F)cc2)nn1` (stereo unspecified): 252 °C.

For the molecule `Cc1cc(-c2ccccc2)nnc1NN`, the melting point turned out to be 162 °C. Molecule `NC(=O)[C@H]1CCc2[nH]c3ccc(F)cc3c2C1` registered a melting point of 170 to 172 °C. The result for `O=C(O)c1cccc(Cn2cc(C3c4ccccc4C=Cc4ccccc43)c(=S)[nH]c2=O)c1` reads over 230 °C; that for `CC12CCC3C4CCC(OCc5ccccc5)CC4CCC3C1C=CC2=O` (stereo unspecified), 119 to 120 °C; that for `O=C1NC(O)C2CN(Cc3ccccc3)CC12` (stereo unspecified), 138 °C. The result for `Cn1c(CC(=O)O)cc2ccc3ccsc3c(=O)c21` reads 185 to 188 °C; that for `CCOC(=O)COc1ccc(C=O)cc1`, 39 °C; that for `C#Cc1ccc(Oc2ccc(C(=O)C(=O)c3cccc(C(=O)C(=O)c4ccc(Oc5ccc(C#C)cc5)cc4)c3)cc2)cc1`, 120 to 121 °C. The same measure for `CN1c2ccncc2NCc2cccn21`: 135 to 140 °C. In the case of `CCCn1c(=O)c2c(nc(C=Cc3cc(C)c(C)cc3S(=O)(=O)O)n2C)n(CCC)c1=O`, the melting point was over 280 °C. The same measure for `CC(=O)NC[C@H]1CN(c2ccc(N3C[C@H]4CN(C(=O)COCc5ccccc5)C[C@H]4C3)c(F)c2)C(=O)O1`: 138 to 140 °C; for `CS(=O)(=O)Nc1cc2c(cc1Oc1ccccc1)C(=O)CCO2`: 143 to 144 °C. The result for `CCOc1c(C(=O)c2cccs2)cnc2[nH]ncc12` reads 202 to 205 °C. The same measure for `COc1nc(-c2ccccc2)c2c(n1)N(c1c(F)cccc1F)C(=O)NC2`: 221 to 224 °C. Turning to `CCC(=O)N[C@@H](C)C(=O)N1CCC[C@H]1C(=O)NC1CCCCCCC1`, the melting point lay in the range of 142 to 143 °C. The result for `Cc1ccccc1[C@H]1O[C@H](CC(=O)O)C(=O)N(CC(C)C)c2ccccc21` (relative stereo) reads 192 to 195 °C. The same measure for `CCc1nc2cnc3cc(C=CC(=O)N(C)C)ccc3c2n1CC(C)(C)O`: 196 to 198 °C; for `Cc1cccc2c(=O)nc(-c3ccccn3)sc12`: 198 °C; for `N#Cc1c(N2CCN(C(=O)c3cccs3)CC2)c2cscc2[nH]c1=O`: 263 °C. The same measure for `CC(C)(C)OC(=O)NCC[C@H]1CC[C@H](CO)CC1`: 75 to 76 °C; for `CSc1c2ccccc2c(C=O)c2ccccc12`: 98.5 to 99 °C. Consider `CC(=O)c1cnc2c(NC(=O)c3c(Cl)cccc3Cl)cccc2c1`, for which the melting point is 243 to 245 °C. The same measure for `CN(C)C=Nc1nc(OCc2ccc(F)cc2)ncc1F`: 113 to 115 °C; for `CCOC(=O)c1ccc2c(c1)C(=O)N(C1CC(C)(C)N(C(C)=O)C(C)(C)C1)C2=O`: 119 to 121 °C. The result for `COc1ccccc1NC(=O)Nc1nc(Nc2ccccc2-c2ccccc2)nc(N2Cc3ccccc3CC2C(=O)O)n1` (stereo unspecified) reads 138 to 145 °C. As for `Nc1ncnc2c1ncn2Cc1nc2cccc(Cl)c2c(=O)n1-c1ccccc1-c1ccccc1`, the melting point came out at 300 °C. The same measure for `Cc1cc(SC(C)c2ccc3nc(-c4ccc(C(F)(F)F)cc4)sc3c2)ccc1OCC(=O)O` (stereo unspecified): 170 to 173 °C. Molecule `Cc1c(C(F)(F)F)noc1NS(=O)(=O)c1cccc2ccccc12` had a melting point of 154 to 155 °C. The result for `CCOC(=O)C1=Cc2cc(Br)ccc2N(C=O)CC1` reads 150 to 152 °C. Turning to `CC(C)(C)Sc1c(CC(C)(C)C(=O)O)n(Cc2ccc(Cl)cc2)c2ccc(OCc3cc4ccccc4cn3)cc12`, the melting point was 228 °C. The result for `CC(C)Oc1cccc(-n2c(NN)nc3ccccc3c2=O)c1` reads 158 to 160 °C.

For the molecule `O=C(Nc1cccnc1)N1CCN(c2nccc(-c3ccccc3F)n2)CC1`, the melting point fell in the range of 200 to 201 °C. The result for `CC(=O)N1CCC(n2cnc3ccc(-c4nnc(C)o4)cc32)CC1` reads 228 to 229 °C; that for `CCn1c(=O)n(CCN2CC[C@H](NC(=O)c3cc(Cl)c(N)c4c3OCC4)[C@H](OC)C2)c2ccccc21` (relative stereo), 174 °C.

Broadly, the melting point is the temperature of the solid-liquid transition.
